From patent US20240101528A1, “SUBSTITUTED PYRAZOLO PIPERIDINE CARBOXYLIC ACIDS” (BAYER AKTIENGESELLSCHAFT, priority 2020, published 2024)
pEC50: −log10 of the molar value. Where a name gives a salt, the structure may show the parent alone.

Molecular target: T1, recombinant guanylate cyclase reporter cell line (Rattus norvegicus, UniProt P20595)
T1 construct: expressed in transfected cells
T1 sequence (P20595 1-619): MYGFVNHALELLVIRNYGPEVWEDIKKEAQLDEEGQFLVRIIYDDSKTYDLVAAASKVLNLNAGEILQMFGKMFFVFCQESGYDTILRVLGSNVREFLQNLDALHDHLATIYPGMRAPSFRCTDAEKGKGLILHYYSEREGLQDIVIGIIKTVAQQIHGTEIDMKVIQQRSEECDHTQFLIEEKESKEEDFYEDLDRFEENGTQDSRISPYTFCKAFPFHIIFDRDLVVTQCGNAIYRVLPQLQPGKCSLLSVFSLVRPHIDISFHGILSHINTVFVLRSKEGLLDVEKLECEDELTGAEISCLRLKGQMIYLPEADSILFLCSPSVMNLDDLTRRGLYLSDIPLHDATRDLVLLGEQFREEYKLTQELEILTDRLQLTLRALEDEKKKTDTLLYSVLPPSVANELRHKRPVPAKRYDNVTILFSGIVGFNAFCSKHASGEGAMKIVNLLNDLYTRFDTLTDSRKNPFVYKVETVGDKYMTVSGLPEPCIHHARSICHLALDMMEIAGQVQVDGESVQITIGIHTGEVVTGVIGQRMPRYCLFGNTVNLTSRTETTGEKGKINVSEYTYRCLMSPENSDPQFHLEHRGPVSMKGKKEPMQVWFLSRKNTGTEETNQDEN
T1 sequence (P19686 1-690 partner): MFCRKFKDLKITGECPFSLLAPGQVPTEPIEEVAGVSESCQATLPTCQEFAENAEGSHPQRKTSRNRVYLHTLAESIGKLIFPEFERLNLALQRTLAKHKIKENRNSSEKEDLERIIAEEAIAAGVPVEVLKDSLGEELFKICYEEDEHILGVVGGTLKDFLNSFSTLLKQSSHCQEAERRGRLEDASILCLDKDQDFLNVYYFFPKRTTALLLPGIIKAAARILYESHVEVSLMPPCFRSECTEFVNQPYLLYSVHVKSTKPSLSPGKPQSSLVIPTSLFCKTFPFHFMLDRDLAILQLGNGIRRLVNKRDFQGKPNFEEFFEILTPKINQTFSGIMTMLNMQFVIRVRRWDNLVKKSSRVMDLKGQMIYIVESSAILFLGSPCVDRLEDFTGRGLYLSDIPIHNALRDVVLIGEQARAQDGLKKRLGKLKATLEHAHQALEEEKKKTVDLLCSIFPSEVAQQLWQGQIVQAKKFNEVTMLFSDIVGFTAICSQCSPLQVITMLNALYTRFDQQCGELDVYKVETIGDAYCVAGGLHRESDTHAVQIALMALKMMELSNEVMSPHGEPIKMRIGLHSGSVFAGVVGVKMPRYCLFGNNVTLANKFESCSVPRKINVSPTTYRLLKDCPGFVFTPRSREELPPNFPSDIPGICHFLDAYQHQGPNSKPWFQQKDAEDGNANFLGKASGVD
Experiment: Effect on a recombinant guanylate cyclase reporter cell line
Type: cell-based
Conditions: for pEC50: half maximal effective concentration; for MEC: minimum effective concentration
Experimental: B-1. Effect on a Recombinant Guanylate Cyclase Reporter Cell Line
The cellular activity of the compounds according to the invention was determined using a recombinant guanylate cyclase reporter cell line, as described in F. Wunder et al., Anal. Biochem. 339, 104-112 (2005).

Compound	pEC50	MEC
O=C(O)c1cnn(C2CCCN(c3cc(Cl)ccc3-c3ccc(N4CCN(C5COC5)CC4)cc3)C2)c1C(F)F (single isomer, unassigned; enantiomer 1) [Example 42, 1-(1-{4-Chloro-4′-[4-(oxetan-3-yl)piperazin-1-yl][biphenyl]-2-yl}piperidin-3-yl)-5-(difluoromethyl)-1H-pyrazole-4-carboxylic acid hydrochloride (Enantiomer 1)]	7.15	30.0 nM
CCN1CCN(c2ccc(-c3ccc(Cl)cc3N3CCCC(n4ncc(C(=O)O)c4C(F)F)C3)cc2)CC1 (single isomer, unassigned; enantiomer 1) [Example 3, 1-{1-[4-Chloro-4′-(4-ethylpiperazin-1-yl)[biphenyl]-2-yl]piperidin-3-yl}-5-(difluoromethyl)-1H-pyrazole-4-carboxylic acid hydrochloride (Enantiomer 1)]	7.61	3.0 nM
CCN1CCN(c2ccc(-c3ccc(C(F)(F)F)cc3N3CCCC(n4ncc(C(=O)O)c4C(F)F)C3)cc2)CC1 (single isomer, unassigned; enantiomer 1) [Example 73, 5-(Difluoromethyl)-1-{1-[4′-(4-ethylpiperazin-1-yl)-4-(trifluoromethyl)[biphenyl]-2-yl]piperidin-3-yl}-1H-pyrazole-4-carboxylic acid hydrochloride (Enantiomer 1)]	7.18	10.0 nM
O=C(O)c1cnn(C2CCCN(c3cc(Cl)ccc3-c3ccc(N4CCN(CCC(F)(F)F)CC4)cc3)C2)c1C(F)F (single isomer, unassigned; enantiomer 2) [Example 23, 1-(1-{4-Chloro-4′-[4-(3,3,3-trifluoropropyl)piperazin-1-yl][biphenyl]-2-yl}piperidin-3-yl)-5-(difluoromethyl)-1H-pyrazole-4-carboxylic acid hydrochloride (Enantiomer 2)]	9.00	<0.3 nM
CN1CCN(c2ccc(-c3ccc(Cl)cc3N3CCCC(n4ncc(C(=O)O)c4C(F)F)C3)cc2)CC1 (single isomer, unassigned; enantiomer 2) [Example 2, 1-{1-[4-Chloro-4′-(4-methylpiperazin-1-yl)[biphenyl]-2-yl]piperidin-3-yl}-5-(difluoromethyl)-1H-pyrazole-4-carboxylic acid hydrochloride (Enantiomer 2)]	7.60	7.0 nM
CC(C)CN1CCN(c2ccc(-c3ccc(Cl)cc3N3CC(n4ncc(C(=O)O)c4C(F)F)CC(F)(F)C3)cc2)CC1 (single isomer, unassigned; enantiomer 1) [Example 54, 1-{1-[4-Chloro-4′-(4-isobutylpiperazin-1-yl)[biphenyl]-2-yl]-5,5-difluoropiperidin-3-yl}-5-(difluoromethyl)-1H-pyrazole-4-carboxylic acid hydrochloride (Enantiomer 1)]	8.08	3.0 nM
O=C(O)c1cnn(C2CCCN(c3cc(Cl)ccc3-c3ccc(N4CCN(CC5CC5C(F)(F)F)CC4)cc3)C2)c1C(F)F (mixture of isomers) [Example 39, 1-{1-[4-Chloro-4′-(4-{[cis-2-(trifluoromethyl)cyclopropyl]methyl}piperazin-1-yl) [biphenyl]-2-yl]piperidin-3-yl}-5-(difluoromethyl)-1H-pyrazole-4-carboxylic acid hydrochloride (Diastereomeric Mixture 2)]	7.84	1.0 nM
CC(C)(F)C(=O)N1CCN(c2ccc(-c3ccc(Cl)cc3N3CCCC(n4ncc(C(=O)O)c4C(F)F)C3)cc2)CC1 (single isomer, unassigned; enantiomer 2) [Example 49, 1-(1-{4-Chloro-4′-[4-(2-fluoro-2-methylpropanoyl)piperazin-1-yl][biphenyl]-2-yl}piperidin-3-yl)-5-(difluoromethyl)-1H-pyrazole-4-carboxylic acid (Enantiomer 2)]	7.86	3.0 nM
